ChEMBL document CHEMBL4308841, “Synthesis, in vitro antiproliferative activity, and kinase inhibitory effects of pyrazole-containing diarylureas and diarylamides” (Eur J Med Chem, 2018)

Tests used:
[1] = system: OVCAR-3; assay: Growth inhibition of human OVCAR3 cells assessed as cell growth at 0.01 uM incubated for 48 hrs by sulforhodamine B assay relative to control; type: functional; settings: OVCAR-3, 48 h, read-out: Activity
[2] = system: UO-31; assay: Growth inhibition of human UO31 cells incubated for 48 hrs by sulforhodamine B assay; type: functional, cell-based; settings: UO-31, 48 h
[3] = system: SK-MEL-2; assay: Growth inhibition of human SK-MEL-2 cells assessed as cell growth at 1 uM incubated for 48 hrs by sulforhodamine B assay relative to control; type: functional; settings: SK-MEL-2, 48 h, read-out: Activity
[4] = system: KM12; assay: Growth inhibition of human KM12 cells assessed as cell growth at 0.1 uM incubated for 48 hrs by sulforhodamine B assay relative to control; type: functional; settings: KM12, 48 h, read-out: Activity
[5] = system: T47D; assay: Growth inhibition of human T47D cells assessed as cell growth at 0.1 uM incubated for 48 hrs by sulforhodamine B assay relative to control; type: functional; settings: read-out: Activity
[6] = system: NCI-H23; assay: Growth inhibition of human NCI-H23 cells incubated for 48 hrs by sulforhodamine B assay; type: functional, cell-based; settings: NCI-H23, 48 h
[7] = system: MDA-MB-231; assay: Growth inhibition of human MDA-MB-231 cells assessed as cell growth at 1 uM incubated for 48 hrs by sulforhodamine B assay relative to control; type: functional; settings: MDA-MB-231, 48 h, read-out: Activity
[8] = system: OVCAR-3; assay: Growth inhibition of human OVCAR3 cells assessed as cell growth at 100 uM incubated for 48 hrs by sulforhodamine B assay relative to control; type: functional; settings: OVCAR-3, 48 h, read-out: Activity
[9] = system: NCI/ADR-RES; assay: Growth inhibition of human NCI/ADR-RES cells incubated for 48 hrs by sulforhodamine B assay; type: functional, cell-based
[10] = system: NCI-H522; assay: Growth inhibition of human NCI-H522 cells assessed as cell growth at 0.01 uM incubated for 48 hrs by sulforhodamine B assay relative to control; type: functional; settings: NCI-H522, 48 h, read-out: Activity
[11] = system: HL-60(TB); assay: Growth inhibition of human HL-60(TB) cells incubated for 48 hrs by sulforhodamine B assay; type: functional, cell-based; settings: HL-60, 48 h
[12] = system: NCI-H322M; assay: Growth inhibition of human NCI-H322M cells assessed as cell growth at 0.1 uM incubated for 48 hrs by sulforhodamine B assay relative to control; type: functional; settings: read-out: Activity
[13] = system: Malme-3M; assay: Growth inhibition of human MALME-3M cells assessed as cell growth at 100 uM incubated for 48 hrs by sulforhodamine B assay relative to control; type: functional; settings: read-out: Activity
[14] = system: BT-549; assay: Growth inhibition of human BT549 cells incubated for 48 hrs by sulforhodamine B assay; type: functional, cell-based; settings: BT-549, 48 h
[15] = system: CCRF-CEM; assay: Growth inhibition of human CCRF-CEM cells assessed as cell growth at 0.1 uM incubated for 48 hrs by sulforhodamine B assay relative to control; type: functional; settings: read-out: Activity
[16] = system: BT-549; assay: Growth inhibition of human BT549 cells assessed as cell growth at 100 uM incubated for 48 hrs by sulforhodamine B assay relative to control; type: functional; settings: BT-549, 48 h, read-out: Activity
[17] = system: ACHN; assay: Growth inhibition of human ACHN cells assessed as cell growth at 0.01 uM incubated for 48 hrs by sulforhodamine B assay relative to control; type: functional; settings: read-out: Activity
[18] = system: SF-539; assay: Growth inhibition of human SF539 cells incubated for 48 hrs by sulforhodamine B assay; type: functional, cell-based; settings: SF-539, 48 h
[19] = system: CCRF-CEM; assay: Growth inhibition of human CCRF-CEM cells assessed as cell growth at 1 uM incubated for 48 hrs by sulforhodamine B assay relative to control; type: functional; settings: read-out: Activity
[20] = system: RPMI-8226; assay: Growth inhibition of human RPMI8226 cells assessed as cell growth at 1 uM incubated for 48 hrs by sulforhodamine B assay relative to control; type: functional; settings: RPMI-8226, 48 h, read-out: Activity
[21] = system: OVCAR-8; assay: Growth inhibition of human OVCAR8 cells incubated for 48 hrs by sulforhodamine B assay; type: functional, cell-based; settings: OVCAR-8, 48 h
[22] = system: DU-145; assay: Growth inhibition of human DU145 cells incubated for 48 hrs by sulforhodamine B assay; type: functional, cell-based; settings: DU-145, 48 h
[23] = system: UACC-257; assay: Growth inhibition of human UACC257 cells incubated for 48 hrs by sulforhodamine B assay; type: functional, cell-based; settings: UACC-257, 48 h
[24] = system: SK-MEL-28; assay: Growth inhibition of human SK-MEL-28 cells assessed as cell growth at 0.1 uM incubated for 48 hrs by sulforhodamine B assay relative to control; type: functional; settings: SK-MEL-28, 48 h, read-out: Activity
[25] = system: SK-MEL-28; assay: Growth inhibition of human SK-MEL-28 cells assessed as cell growth at 0.01 uM incubated for 48 hrs by sulforhodamine B assay relative to control; type: functional; settings: SK-MEL-28, 48 h, read-out: Activity
[26] = system: PC-3; assay: Growth inhibition of human PC3 cells assessed as cell growth at 1 uM incubated for 48 hrs by sulforhodamine B assay relative to control; type: functional; settings: PC-3, 48 h, read-out: Activity
[27] = system: CAKI-1; assay: Growth inhibition of human Caki1 cells assessed as cell growth at 1 uM incubated for 48 hrs by sulforhodamine B assay relative to control; type: functional; settings: CAKI-1, 48 h, read-out: Activity
[28] = system: MOLT-4; assay: Growth inhibition of human MOLT4 cells assessed as cell growth at 0.01 uM incubated for 48 hrs by sulforhodamine B assay relative to control; type: functional; settings: MOLT-4, 48 h, read-out: Activity
[29] = read-out: LC50 (the source's name)
[30] = read-out: pLC50 (the source's name) (converted)

COc1cc(Cl)cc(-c2nn(-c3cccc(NC(=O)Nc4cccc(C(F)(F)F)c4)c3)cc2-c2ccncc2)c1
growth at 0.01 µM [1]: 100% | IC50 [2]: 1.03 µM | GI50 ([2]; read-out: GI50): 1.03 µM | CC50 [2, 29]: > 100 µM | TGI ([2]; read-out: TGI): 77.5 µM | GI50 ([2]; read-out: pGI50 (converted)): 1.02 µM | CC50 [2, 30]: > 100 µM | TGI ([2]; read-out: pTGI (converted)): 7.76 µM | growth at 1 µM [3]: 85% | growth at 0.1 µM [4]: 95% | growth at 0.1 µM [5]: 94% | GI50 ([6]; read-out: GI50): 1.76 µM | LC50 ([6]; read-out: LC50): > 100 µM | TGI ([6]; read-out: TGI): 55.9 µM | GI50 ([6]; read-out: pGI50 (converted)): 1.78 µM | LC50 ([6]; read-out: pLC50 (converted)): > 100 µM | TGI ([6]; read-out: pTGI (converted)): 6.76 µM | growth at 1 µM [7]: 71% | growth at 100 µM [8]: -41% | GI50 ([9]; read-out: GI50): 1.65 µM | CC50 [9, 29]: > 100 µM | TGI ([9]; read-out: TGI): 75.1 µM | GI50 ([9]; read-out: pGI50 (converted)): 1.66 µM | CC50 [9, 30]: > 100 µM | TGI ([9]; read-out: pTGI (converted)): 7.76 µM | growth at 0.01 µM [10]: 95% | GI50 ([11]; read-out: GI50): 1.91 µM | LC50 ([11]; read-out: LC50): > 100 µM | TGI ([11]; read-out: TGI): 55.1 µM | GI50 ([11]; read-out: pGI50 (converted)): 1.91 µM | LC50 ([11]; read-out: pLC50 (converted)): > 100 µM | TGI ([11]; read-out: pTGI (converted)): 5.5 µM | growth at 0.1 µM [12]: 94% | growth at 100 µM [13]: -26% | GI50 ([14]; read-out: GI50): 2.22 µM | CC50 [14, 29]: > 100 µM | TGI ([14]; read-out: TGI): 55 µM | GI50 ([14]; read-out: pGI50 (converted)): 2.24 µM | CC50 [14, 30]: > 100 µM | TGI ([14]; read-out: pTGI (converted)): 5.62 µM | growth at 0.1 µM [15]: 97% | growth at 100 µM [16]: -48% | growth at 0.01 µM [17]: 108% | GI50 ([18]; read-out: GI50): 1 µM | CC50 [18, 29]: 21.1 µM | TGI ([18]; read-out: TGI): 45.2 µM | GI50 ([18]; read-out: pGI50 (converted)): 1.91 µM | CC50 [18, 30]: 21.4 µM | TGI ([18]; read-out: pTGI (converted)): 4.79 µM | growth at 1 µM [19]: 56% | growth at 1 µM [20]: 22% | GI50 ([21]; read-out: GI50): 1.12 µM | CC50 [21, 29]: > 100 µM | TGI ([21]; read-out: TGI): 45.8 µM | GI50 ([21]; read-out: pGI50 (converted)): 1.12 µM | CC50 [21, 30]: > 100 µM | TGI ([21]; read-out: pTGI (converted)): 4.9 µM | GI50 ([22]; read-out: GI50): 2.61 µM | CC50 [22, 29]: > 100 µM | TGI ([22]; read-out: TGI): > 100 µM | GI50 ([22]; read-out: pGI50 (converted)): 2.63 µM | CC50 [22, 30]: > 100 µM | TGI ([22]; read-out: pTGI (converted)): > 100 µM | GI50 ([23]; read-out: GI50): 1.75 µM | CC50 [23, 29]: 21.5 µM | TGI ([23]; read-out: TGI): 45.5 µM | GI50 ([23]; read-out: pGI50 (converted)): 1.74 µM | CC50 [23, 30]: 21.4 µM | TGI ([23]; read-out: pTGI (converted)): 4.68 µM | growth at 0.1 µM [24]: 100% | growth at 0.01 µM [25]: 99% | growth at 1 µM [26]: 27% | growth at 1 µM [27]: 57% | growth at 0.01 µM [28]: 95%
